# Experimental data as given in US20140271831A1, “RACECADOTRIL LIQUID COMPOSITIONS” (McNeil-PPC, Inc., priority 2013, published 2014).
# How the values were obtained:
# [1] = cited from earlier work
# [2] = Stability of Racecadotril in Beta-Hydroxypropyl-Cyclodextrin (Beta-HPCD); type: physicochemical
# Method: Formulations of racecadotril in beta-hydroxypropyl-cyclodextrin were evaluated (Table 4). • 1. Pipet 1 mL of Racecadotril solution into a 100 mL volumetric flask (V.F.) • 2. Dilute to volume with the same buffer used in the solution preparation. • 3. […] Parameters may be modified to optimize chromatography. • The assay of Racecadotril is determined by using the external standard injected. The degradation products levels are determined by % peak area relative to the Racecadotril peak. [table] [table] Mobil Phase A: Phosphate buffer, pH 2.5 (Buffer prep: dissolve 1 g of potassium dihydrogen phosphate in water, adjust to pH 2.5 with phosphoric acid, dilute to 1000 mL with water) Mobil Phase B: 100% Acetonitrile
structure (smiles),measurement,setting,value
CC(=O)SCC(Cc1ccccc1)C(=O)NCC(=O)OCc1ccccc1 (racemic) [Racecadotril],water solubility,[1],low water solubility
same,stability in Beta-HPCD compared with buffers alone,[2],stability is similar to that in buffers alone
same,"Racecadotril in Beta-HPCD at 40° C. (%) with pH Adjustment to 4.5, Acetate Buffer",[2]; 1 Week,96.16%
same,"Racecadotril in Beta-HPCD at 40° C. (%) with pH Adjustment to 4.5, Citrate Buffer",[2]; 1 Week,96.20%
same,"Racecadotril in Beta-HPCD at 40° C. (%) without pH Adjustment, Acetate Buffer",[2]; 1 Week,94.1%
same,"Racecadotril in Beta-HPCD at 40° C. (%) without pH Adjustment, Citrate Buffer",[2]; 1 Week,93.6%
same,"Racecadotril in Beta-HPCD at 40° C. (%) with pH Adjustment to 4.5, Acetate Buffer",[2]; 2 Weeks,92.7%
same,"Racecadotril in Beta-HPCD at 40° C. (%) with pH Adjustment to 4.5, Citrate Buffer",[2]; 2 Weeks,92.91%
same,"Racecadotril in Beta-HPCD at 40° C. (%) with pH Adjustment to 4.5, Acetate Buffer",[2]; 3 Weeks,88.95%
same,"Racecadotril in Beta-HPCD at 40° C. (%) with pH Adjustment to 4.5, Citrate Buffer",[2]; 3 Weeks,89.59%
same,"Racecadotril in Beta-HPCD at 40° C. (%) with pH Adjustment to 4.5, Acetate Buffer",[2]; 4 Weeks,85.84%
same,"Racecadotril in Beta-HPCD at 40° C. (%) with pH Adjustment to 4.5, Citrate Buffer",[2]; 4 Weeks,86.80%
same,"Racecadotril in Beta-HPCD at 40° C. (%) with pH Adjustment to 4.5, Acetate Buffer",[2]; 12 Hours,98.07%
same,"Racecadotril in Beta-HPCD at 40° C. (%) with pH Adjustment to 4.5, Citrate Buffer",[2]; 12 Hours,98.12%
same,"Racecadotril in Beta-HPCD at 40° C. (%) without pH Adjustment, Acetate Buffer",[2]; 12 Hours,96.9%
same,"Racecadotril in Beta-HPCD at 40° C. (%) without pH Adjustment, Citrate Buffer",[2]; 12 Hours,96.9%
same,"Racecadotril in Beta-HPCD at 40° C. (%) with pH Adjustment to 4.5, Acetate Buffer",[2]; Initial,99.58%
same,"Racecadotril in Beta-HPCD at 40° C. (%) with pH Adjustment to 4.5, Citrate Buffer",[2]; Initial,99.58%
same,"Racecadotril in Beta-HPCD at 40° C. (%) without pH Adjustment, Acetate Buffer",[2]; Initial,99.5%
same,"Racecadotril in Beta-HPCD at 40° C. (%) without pH Adjustment, Citrate Buffer",[2]; Initial,99.3%
